Results published in patent publication US7713971B2, “1,2,4-triazine derivatives, preparation and use thereof in human therapy” (Pierre Fabre Medicament, priority 2005, dated 2010).
Like-named read-outs stand apart in the source and are kept apart here.

How the values were obtained:
human PPARγ = molecular target: T1, human PPARγ (Homo sapiens, UniProt P37231); assay: Reporter gene transactivation, hPPAR-GAL4 gamma; format: cell-based; settings: transfected Cos-7 cells, Gal-4 luciferase reporter, 24 hours treatment
T1 construct: expressed in transfected cells; host or cells: Cos-7 cells (ATCC, CRL-1651)
T1 sequence (P37231 238-503 limits assumed): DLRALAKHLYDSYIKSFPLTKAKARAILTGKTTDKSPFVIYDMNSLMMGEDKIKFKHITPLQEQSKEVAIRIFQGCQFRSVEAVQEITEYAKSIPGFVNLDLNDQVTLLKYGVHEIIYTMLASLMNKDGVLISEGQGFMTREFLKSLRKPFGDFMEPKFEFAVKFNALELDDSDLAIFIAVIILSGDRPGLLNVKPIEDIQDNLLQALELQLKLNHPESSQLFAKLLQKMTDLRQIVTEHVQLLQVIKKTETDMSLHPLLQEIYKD

[1] = system: insulin-resistant male rat (Ico: ZUCKER-fa/fa); assay: Normalization of metabolic parameters (cholesterol, plasma triglycerides) in insulin-resistant rat; format: in vivo; settings: oral route, once per day for four days, Zucker fa/fa rat unfed 16-18 hours; for change in vivo at 10 mg/kg / change in vivo at 2.5 mg/kg: 96 h
Protocol: Normalization of metabolic parameters (cholesterol, plasma triglycerides) in an insulin-resistant male rat (Ico: ZUCKER-fa/fa), unfed for 16-18 hours, after treatment by oral route, once per day for four days, with the compounds to be evaluated or their administration vehicle.
These metabolic parameters are measured by spectrophotometry at the beginning and the end of each animal's treatment.

human PPARα = molecular target: T2, human PPARα (Homo sapiens, UniProt Q07869); assay: Reporter gene transactivation, hPPAR-GAL4 alpha; format: cell-based; settings: transfected Cos-7 cells, Gal-4 luciferase reporter, 24 hours treatment
T2 construct: expressed in transfected cells; host or cells: Cos-7 cells (ATCC, CRL-1651)
T2 sequence (Q07869 239-466 limits assumed): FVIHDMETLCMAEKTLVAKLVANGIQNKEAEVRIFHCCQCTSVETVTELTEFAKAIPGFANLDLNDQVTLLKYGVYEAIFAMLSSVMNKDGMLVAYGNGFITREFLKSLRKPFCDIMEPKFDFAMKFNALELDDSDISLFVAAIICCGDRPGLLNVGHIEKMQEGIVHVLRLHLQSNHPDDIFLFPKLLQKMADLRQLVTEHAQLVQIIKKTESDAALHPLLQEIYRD

[2] = at 10 mg/kg, read-out: Plasma cholesterol
[3] = at 10 mg/kg, read-out: Plasma triglycerides
[4] = at 2.5 mg/kg, read-out: Plasma cholesterol
[5] = at 2.5 mg/kg, read-out: Plasma triglycerides

Structure (SMILES) | EC50 (human PPARγ) | EC50 (human PPARα) | change in vivo at 10 mg/kg [1, 2] | Plasma triglycerides ([1]; at 10 mg/kg) | change in vivo at 10 mg/kg [1, 3] | change in vivo at 2.5 mg/kg [1, 4] | Plasma triglycerides ([1]; at 2.5 mg/kg) | change in vivo at 2.5 mg/kg [1, 5]
CCOC(=O)C(C)(C)Oc1cccc(CCCNc2nn(C)c(=O)n(CCCC(F)(F)F)c2=O)c1 [Example 65, Ethyl 2-methyl-2-(3-{3-[2-methyl-3,5-dioxo-4-(4,4,4-trifluoro-butyl)-2,3,4,5-tetrahydro-[1,2,4]triazin-6-ylamino]-propyl}-phenoxy)-propionate] | > 10 µM | 0.1 to 0.3 µM | -23% |  | -13% | -13% | inactive at 2.5 | 
CCOC(=O)C(C)(C)Oc1cccc(CCCCNc2nn(CCCC(F)(F)F)c(=O)n(C)c2=O)c1 [Example 74, Ethyl 2-methyl-2-(3-{4-[4-methyl-3,5-dioxo-2-(4,4,4-trifluoro-butyl)-2,3,4,5-tetrahydro-[1,2,4]triazin-6-ylamino]-butyl}-phenoxy)-propionate] | 3 to 10 µM | ~1 µM | -29% |  | -26% | -18% | inactive at 2.5 | 
CCOC(=O)C(C)(C)Oc1cccc(CCCCNc2nn(C)c(=O)n(CCCC(F)(F)F)c2=O)c1 [Example 77, Ethyl 2-methyl-2-(3-{4-[2-methyl-3,5-dioxo-4-(4,4,4-trifluoro-butyl)-2,3,4,5-tetrahydro-[1,2,4]triazin-6-ylamino]-butyl}-phenoxy)-propionate] | 3 to 10 µM | ~0.3 µM | -35% | active at 10 mg/kg |  | -29% |  | 
Cn1nc(NCCCCc2cccc(OC(C)(C)C(=O)O)c2)c(=O)n(CCCC(F)(F)F)c1=O [Example 79, 2-Methyl-2-(3-{4-[2-methyl-3,5-dioxo-4-(4,4,4-trifluoro-butyl)-2,3,4,5-tetrahydro-[1,2,4]triazin-6-ylamino]-butyl}-phenoxy)-propionic Acid] | 3 to 10 µM | ~0.03 µM |  |  |  | -32% |  | -55%
CCOC(=O)C(C)(C)Oc1cccc(CCCCNc2nn(CCC#N)c(=O)n(CCCC(F)(F)F)c2=O)c1 [Example 81, Ethyl 2-(3-{4-[2-(2-cyano-ethyl)-3,5-dioxo-4-(4,4,4-trifluoro-butyl)-2,3,4,5-tetrahydro-[1,2,4]triazin-6-ylamino]-butyl}-phenoxy)-2-methyl-propionate] | > 10 µM | 0.3 to 1 µM | -12% |  | -17% |  |  | 
CCCCCCCn1nc(NCCCCc2cccc(OC(C)(C)C(=O)OCC)c2)c(=O)n(CCCC(F)(F)F)c1=O [Example 82, Ethyl 2-(3-{4-[2-heptyl-3,5-dioxo-4-(4,4,4-trifluoro-butyl)-2,3,4,5-tetrahydro-[1,2,4]triazin-6-ylamino]-butyl}-phenoxy)-2-methyl-propionate] | 0.1 to 0.3 µM | ~0.01 µM | -13% | active at 10 mg/kg |  |  |  | 
CCOC(=O)C(C)(C)Oc1cccc(CCCCCNc2nn(CCCC(F)(F)F)c(=O)n(CCCC(F)(F)F)c2=O)c1 [Example 92, Ethyl 2-(3-{5-[3,5-dioxo-2,4-bis-(4,4,4-trifluoro-butyl)-2,3,4,5-tetrahydro-[1,2,4]triazin-6-ylamino]-pentyl}-phenoxy)-2-methyl-propionate] | 3 to 10 µM | 0.003 to 0.01 µM | -18% | inactive at 10 |  |  |  | 
CCOC(=O)C(C)(C)Sc1cccc(CCCCNc2nn(C)c(=O)n(CCCC(F)(F)F)c2=O)c1 [Example 95] | > 10 µM | 1 to 3 µM | -40% | inactive at .10 |  | -18% |  | 
CCCCCCCn1nc(NCCc2ccc(SC(C)(C)C(=O)OCC)cc2)c(=O)n(C)c1=O [Example 119, Ethyl 2-{4-[2-(2-heptyl-4-methyl-3,5-dioxo-2,3,4,5-tetrahydro-[1,2,4]triazin-6-ylamino)-ethyl]-phenylsulfanyl}-2-methyl-propionate] | 0.3 µM | 0.3 µM | -32% |  | -29% | -21% | active at 2.5 | 
CCCCCCCn1nc(NCCc2ccc(SC(C)(C)C(=O)O)cc2)c(=O)n(C)c1=O [Example 120, 2-{4-[2-(2-Heptyl-4-methyl-3,5-dioxo-2,3,4,5-tetrahydro-[1,2,4]triazin-6-ylamino)-ethyl]-phenylsulfanyl}-2-methyl-propionic Acid] | 1 to 3 µM | 0.3 to 1 µM | -33% |  | -73% | -32% |  | -27%
CCCCCCCn1nc(NCCc2ccc(SC(C)(C)C(=O)O)cc2)c(=O)n(CCCC)c1=O [Example 121, 2-{4-[2-(4-Butyl-2-heptyl-3,5-dioxo-2,3,4,5-tetrahydro-[1,2,4]triazin-6-ylamino)-ethyl]-phenylsulfanyl}-2-methyl-propionic Acid] | 1 to 3 µM | 0.03 to 0.1 µM |  |  |  | -7% |  | -24%
CCCCCCCn1c(=O)c(NCCc2ccc(SC(C)(C)C(=O)O)cc2)nn(CCCC(F)(F)F)c1=O [Example 123, 2-(4-{2-[4-Heptyl-3,5-dioxo-2-(4,4,4-trifluoro-butyl)-2,3,4,5-tetrahydro-[1,2,4]triazin-6-ylamino]-ethyl}-phenylsulfanyl)-2-methyl-propionic Acid] | ~10 µM | 0.1 to 0.3 µM | -14% |  | -20% | -8% |  | -6%

The next lines start with results.

EC50 (human PPARγ) | EC50 (human PPARα) | Structure (SMILES) | change in vivo at 10 mg/kg [1, 2] | Plasma triglycerides ([1]; at 10 mg/kg) | change in vivo at 10 mg/kg [1, 3] | change in vivo at 2.5 mg/kg [1, 4] | Plasma triglycerides ([1]; at 2.5 mg/kg) | change in vivo at 2.5 mg/kg [1, 5]
~3 µM | 1 to 3 µM | CCCCCCCn1nc(NCCCOc2ccc(OC(C)(C)C(=O)OCC)cc2)c(=O)n(C)c1=O [Example 45, Ethyl 2-{4-[3-(2-heptyl-4-methyl-3,5-dioxo-2,3,4,5-tetrahydro-[1,2,4]triazin-6-ylamino)-propoxy]-phenoxy}-2-methyl-propionate] | -16% | inactive at 10 |  |  |  | 
~0.3 µM | ~0.3 µM | CCCCCCCn1c(=O)c(NCCCOc2ccc(OC(C)(C)C(=O)OCC)cc2)nn(C)c1=O [Example 47, Ethyl 2-{4-[3-(4-heptyl-4-methyl-3,5-dioxo-2,3,4,5-tetrahydro-[1,2,4]triazin-6-ylamino)-propoxy]-phenoxy}-2-methyl-propionate] | -25% |  | -45% |  |  | 
3 to 10 µM | 0.1 to 0.3 µM | CCCCCCCn1c(=O)c(NCCCc2cccc(OC(C)(C)C(=O)OCC)c2)nn(CCCC(F)(F)F)c1=O [Example 68, Ethyl 2-(3-{3-[4-heptyl-3,5-dioxo-2-(4,4,4-trifluoro-butyl)-2,3,4,5-tetrahydro-[1,2,4]triazin-6-ylamino]-propyl}-phenoxy)-2-methyl-propionate] | -21% | active at 10 mg/kg |  |  |  | 
3 to 10 µM | 3 to 10 µM | CCCCCCCn1nc(NCCCc2cccc(OC(C)(C)C(=O)OCC)c2)c(=O)n(Cc2ccccc2)c1=O [Example 72, Ethyl 2-{3-[3-(4-Benzyl-2-heptyl-3,5-dioxo-2,3,4,5-tetrahydro-[1,2,4]triazin-6-ylamino)-propyl]-phenoxy}-2-methyl-propionate] | -21% | inactive at 10 |  |  |  | 
3 to 10 µM | 3 to 10 µM | CCCCCCCn1nc(NCCCCc2cccc(OC(C)(C)C(=O)OCC)c2)c(=O)n(C)c1=O [Example 75, Ethyl 2-{3-[4-(2-heptyl-4-methyl-3,5-dioxo-2,3,4,5-tetrahydro-[1,2,4]triazin-6-ylamino)-butyl]-phenoxy}-2-methyl-propionate] | -13% | active at 10 |  | -19% |  | 
1 to 3 µM | ~0.03 µM | CCCCCCCn1c(=O)c(NCCCCc2cccc(OC(C)(C)C(=O)OCC)c2)nn(CCCC(F)(F)F)c1=O [Example 85, Ethyl 2-(3-{4-[4-heptyl-3,5-dioxo-2-(4,4,4-trifluoro-butyl)-2,3,4,5-tetrahydro-[1,2,4]triazin-6-ylamino]-butyl}-phenoxy)-2-methyl-propionate] | -21% | active at 10 mg/kg |  |  |  | 
